Residue numbers refer to the chain shown, from its start.
Tests used:
GCH1 [1] = target: T1, GCH1 (Homo sapiens, UniProt P30793); assay: protein-detected NMR titration (1H,13C HMQC), wild-type GCH1; type: binding
T1 construct: The hGCH1 (42-250, N-terminal 6xHis Tag and TEV cleavage site); 6xHis (N); TEV cleavage site (N); made in house; host or cells: E. coli BL21(DE3)
T1 sequence (P30793 42-250): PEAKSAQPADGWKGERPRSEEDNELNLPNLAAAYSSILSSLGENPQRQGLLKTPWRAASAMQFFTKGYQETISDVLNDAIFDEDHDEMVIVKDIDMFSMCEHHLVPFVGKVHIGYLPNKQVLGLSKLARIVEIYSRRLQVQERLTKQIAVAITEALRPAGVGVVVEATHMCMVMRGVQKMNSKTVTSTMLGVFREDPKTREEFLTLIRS
Experimental: (§1) Finally, the F122A mutant was generated and characterized to check whether the structurally observed, F122-dependent closure of the active site plays a key role in GCH1 function. […] The fitted dissociation constant KD of GCH1 for the nonhydrolyzable GTP analog 7-deaza-GTP was determined by protein-detected NMR titrations. […] Therefore, the missing enzyme activity of the F122 mutant cannot be explained by reduced affinity to the substrate and must have other underlying causes.
(§2) Perdeuterated protein with selectively labeled protonated and ^13C-labeled alanine, isoleucine, leucine, and valine methyl groups {Ala^β-[^13CH3]; Ile^δ1-[^13CH3]; Leu^δ,Val^γ-[^12CD3/^13CH3]} was expressed as described in the literature ([64]). […] All spectra were recorded on a Bruker Avance III 800 MHz NMR spectrometer equipped with a cryogenic triple-resonance probe at 298 K. Fifty micromolars perdeuterated GCH1 monomer with selectively labeled methyl groups was dissolved in 1× PBS in D2O. The ^1H,^13C-HMQC spectra of the protein were recorded with increasing concentration of the nonhydrolyzable GTP analog 7-deaza-GTP up to a final concentration of 3.5 mM. Spectra were processed with Bruker Topspin 3.5 and analyzed using CcpNmr ([65]) analysis version 2. Chemical shift perturbation (CSP) was calculated using Eq. 1 and the binding curve was fitted using Eq. 2. […]

GCH1 F122A mutant = target: T2, GCH1 F122A mutant (Homo sapiens, UniProt P30793, F122A); assay: protein-detected NMR titration (1H,13C HMQC), F122A mutant; type: binding
T2 construct: The hGCH1 (42-250, N-terminal 6xHis Tag and TEV cleavage site); 6xHis (N); TEV cleavage site (N); made in house; host or cells: E. coli BL21(DE3)
T2 sequence (P30793 42-250 F122A): T1 sequence (P30793 42-250) with F81A
Experimental: as §1, §2

GCH1 [2] = target: T1, GCH1; assay: STD-NMR titration of 7-deaza-GTP to GCH1 (initial slopes of build-up curves); type: binding
Excerpt: To shed more light onto the mechanism of BH4-induced inhibition of GCH1, we used saturation transfer difference (STD) NMR spectroscopy to study binding of the substrate analog 7-deaza-GTP to GCH1. STD-NMR can be used to determine the KD of ligands (feasible in the range between 10^−2 and 10^−6 M) and allows the making of qualitative statements about the change of ligand binding kinetics ([28]–[31]). STD-NMR experiments were based on a titration of 7-deaza-GTP to GCH1 in the presence or absence of BH4. We measured a series of STD build-up curves (i.e., STD effects at a constant ligand concentration but increasing saturation times) at each 7-deaza-GTP concentration for the protons H7 and H1′ of the substrate analog. From the concentration dependence of the initial build-up slopes, the dissociation constant as well as the maximum STD amplification for the monitored proton signal can be derived (Fig. 6 A and B).
Fig. 6. KD determination using initial slopes from STD-NMR build-up curves. (A) For each ligand concentration, a set of measurements was recorded applying different saturation times (tsat). To obtain STD-AFmax values and the saturation rate constants ksat from STD-NMR build-up curves, experimental STD-AF values were fit to a rising exponential: STD-AF = STD-AFmax (1−exp (−ksat tsat)). From the fitting parameters, initial build-up slopes (tsat = 0) were calculated: STD-AF0 = STD-AFmax ksat. These STD-AF0 values were plotted against the ligand concentration, yielding a binding isotherm from which KD can be derived by fitting the Langmuir binding model: STD-AF0 = Amax/(1+(KD/c)). Amax is a scaling factor representing the maximum STD amplification. Two different 7-deaza-GTP protons (H1′ and H7) were monitored in these experiments. (C) Assignment of relevant protons on structural formula of 7-deaza-GTP. TEXT PRINTED IN THE PICTURE: (B) H1': KD: 52 (5mM BH4); Amax: 732 (5mM BH4); KD: 326 (no BH4); Amax: 177 (no BH4) | (B) H7: KD: 157 (5mM BH4); Amax: 729 (5mM BH4); KD: 977 (no BH4); Amax: 400 (no BH4) DOUBTS OF THE COPYIST ABOUT THIS PICTURE: Panel B: the row labels H1' and H7 are monitored protons of one ligand (printed in panel A as 7da-GTP / 7-Deaza-GTP), not separate compounds; they are used as labels as printed / Panel B: no unit is printed for KD or Amax in the table
All NMR experiments were performed at 25 °C on a Bruker HD 600-MHz spectrometer equipped with a cryogenic QCI probe head. Deuterium oxide (D2O) NMR buffer solution containing 40 mM of a NaH2PO4 and Na2HPO4 mixture with 150 mM sodium chloride (NaCl) was adjusted to a pD of 7.4 (corrected). Suppression of broad protein resonances was achieved by a T1ρ filter ([60]), formed by a 50-ms spin lock pulse. STD-NMR spectra were acquired with WATERGATE water suppression using W5 hard pulse trains ([61]). Difference spectrum ligand signal intensities were divided by corresponding off-resonance spectrum signal intensities, resulting in relative STD intensity values. Multiplication by ligand excess factor yielded STD amplification factor (STD-AF) values ([28]). For selective protein signal saturation, a cascade of Gaussian-shaped pulses was applied. Series of measurements with different total saturation times (tsat) covering a range between 1.2 and 7.2 s were recorded for extraction of initial slopes from STD-AF build-up plots. An additional relaxation delay varying from 2.8 s to 0.4 s was inserted before the saturation cascade to keep constant the total time per scan. On-resonance irradiation was set to 0.16 parts per million (ppm), and off-resonance irradiation was set to 66 ppm. Depending on the ligand concentration, 64 to 1,024 scans were acquired for the STD experiments (32 to 512 scans each for on- and off-resonance). Considering the STD-AF to be directly proportional to the fraction of bound receptor gives rise to a hyperbolic dose–response curve (specific one-site binding model) when STD-AF values are measured with different ligand concentrations ([31]). […]

GCH1 [3] = target: T1, GCH1; assay: functional assay with 1H-NMR detection of formate; type: biochemical
Experimental: For the functional assay, each NMR sample was prepared with 10 μM GCH1 and 170 μM or 600 μM test compound. The PBS NMR buffer additionally contained 300 μM GTP (Cayman Chemical cat. no. 16060). After a reaction time of 45 min (25 °C), a certain amount of substrate molecules (GTP) has been converted by GCH1 into 7,8-Dihydroneopterin (H2NPT) and the by-product formate (deprotonated formic acid). For product detection, a WATERGATE 1H-NMR spectrum was recorded (128 scans). We used the integrated NMR signal of the formate α-proton at 8.33 ppm as a relative enzyme activity readout. The formate integral of a negative control sample (dimethyl sulfoxide) has been set to 100%. An inhibitory active test compound decreases the GTP turnover and leads to a reduced relative formate signal integral (% inhibition). DAHP was used as a positive control.
(§3) Supplemental Figure 6: Detection of product formation and STD NMR assay. A) Enzyme activity assay for GCH1 based on colorimetric detection of H2NTP or 1H-NMR detection of formate. […]
(§4) inhibitor (e.g. BH4). B) STD NMR is capable to detect GTP binding (green). Addition of another active site binder (8-oxo […]
STD NMR enhancement of substrate GTP in the presence of allosteric regulator BH4 (red). This screening assay allows for the identification of allosteric binders. […]

GCH1 WT = target: T3, GCH1 WT (Homo sapiens, UniProt P30793); assay: enzyme kinetics, H2NTP formation at 330 nm, WT GCH1; type: biochemical; conditions: colorimetric detection of H2NTP
T3 construct: The hGCH1 (42-250, N-terminal 6xHis Tag and TEV cleavage site); 6xHis (N); TEV cleavage site (N); made in house; host or cells: E. coli BL21(DE3)
T3 sequence (P30793 42-250): T1 sequence (P30793 42-250)
Experimental: (§5) In order to test the role of the key residues H126, D127, E128, R235, and R241 involved in allosteric inhibitor binding and conformational change, various point mutants were prepared and tested for their ability to be stimulated and inhibited by effector molecules in the presence or absence of GFRP. […] Enzyme activity was evaluated using an activity assay measuring the formation of the product H2NTP at 330 nm with increasing GTP concentrations.
(§6) GTPCH-I specific enzyme activity was determined by spectrometric measuring of the concentration of its direct product H2NTP. Synergy H1 (BioTek Instruments) and Gen5 2.01 software were used to evaluate H2NTP concentration and the maximal turnover rate (Vmax) within each measuring interval. H2NTP concentration was measured at 330 nm over a measuring period of 2 h using a measuring interval of 2 min to 4 min at 37 °C. Samples were prepared using 2 μM GTPCH-I, varying concentrations of GTP (1 μM to 2,000 µM) and in the absence or presence of 15 mM phenylalanine, 0.1 mM BH4, or 3 μM GFRP. The assay buffer used was 50 mM Tris/HCl, pH 7.5, 100 mM KCl. The specific enzyme activity (A) was calculated using the path length of 0.15 cm and the extinction coefficient […] = 6,300 M^−1⋅cm^−1 H2NTP. […] All enzymatic data were, at least, measured in triplicate (n = 3).

R241A-GCH1 = target: T4, R241A-GCH1 (Homo sapiens, UniProt P30793, R241A); assay: enzyme kinetics, H2NTP formation at 330 nm, R241A-GCH1; type: biochemical; conditions: in the absence and presence of GFRP; 0.1 mM BH4
T4 construct: The hGCH1 (42-250, N-terminal 6xHis Tag and TEV cleavage site); 6xHis (N); TEV cleavage site (N); made in house; host or cells: E. coli BL21(DE3)
T4 sequence (P30793 42-250 R241A): T1 sequence (P30793 42-250) with R200A
Experimental: as §5, §6

R235A-GCH1 = target: T5, R235A-GCH1 (Homo sapiens, UniProt P30793, R235A); assay: enzyme kinetics, H2NTP formation at 330 nm, R235A-GCH1; type: biochemical; conditions: in the absence and presence of GFRP; 0.1 mM BH4
T5 construct: The hGCH1 (42-250, N-terminal 6xHis Tag and TEV cleavage site); 6xHis (N); TEV cleavage site (N); made in house; host or cells: E. coli BL21(DE3)
T5 sequence (P30793 42-250 R235A): T1 sequence (P30793 42-250) with R194A
Experimental: as §5, §6

GCH1 [4] = target: T1, GCH1; assay: STD NMR assay with active site reporter ligand GTP; type: binding; conditions: in the presence of allosteric regulator
Excerpt: as §3, §4
STD NMR enhancement of substrate GTP in the presence of allosteric regulator BH4 (red). This screening assay allows for the identification of allosteric binders. C) Correlation of activity in functional NMR assay and STD NMR enhancement of active site reporter ligand GTP.
(1 picture or pasted object on this page, not shown here)

SMILES	Kd (GCH1 [1])	Kd (GCH1 F122A mutant)	increase of maximum STD amplification (Amax), factor (GCH1 [2]; BH4-inhibited GCH1 compared to the uninhibited enzyme)	factor of tighter binding to the allosterically inhibited GCH1 (GCH1 [2]; BH4-inhibited vs uninhibited GCH1)	Kd (GCH1 [2]; KD (STD-NMR, initial slopes), proton H1', 5mM BH4)	Kd (GCH1 [2]; KD (STD-NMR, initial slopes), proton H1', no BH4)	Kd (GCH1 [2]; KD (STD-NMR, initial slopes), proton H7, 5mM BH4)	Kd (GCH1 [2]; KD (STD-NMR, initial slopes), proton H7, no BH4)	Kd (GCH1 [2]; KD, BH4-bound inhibited hGCH1)	Kd (GCH1 [2]; KD, free, active hGCH1)	formate production in presence of inhibitor (GCH1 [3])	H2NTP production in presence of inhibitor (GCH1 WT)	inhibition of enzyme activity by BH4 (R241A-GCH1)	inhibition of enzyme activity by BH4 (R235A-GCH1)	effect on STD NMR signal of substrate GTP (allosteric regulator) (GCH1 [4])
Nc1nc2c(ccn2C2OC(COP(=O)(O)OP(=O)(O)OP(=O)(O)O)C(O)C2O)c(=O)[nH]1 (stereo not drawn) [7-deaza-GTP]	798 µM	669 µM	about 3	~6	52 µM	326 µM	157 µM	977 µM	~100 µM	~600 µM	–	–	–	–	–
C[C@H](O)[C@H](O)[C@H]1CNc2nc(N)[nH]c(=O)c2N1 [BH4, tetrahydrobiopterin]	–	–	–	–	–	–	–	–	–	–	No H2NTP or formate is produced	No H2NTP or formate is produced	cannot be inhibited	cannot be inhibited	enhancement
